Reference: PubChem BioAssay (NCI)
Where “and” joins values, the source holds several entries; their conditions need not be identical. Equal values may be shown once.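 In this assay, cells in 96-well plates receive the compound at five concentrations for 48 hours. Endpoints are linearly interpolated between the surrounding concentrations. At the GI50, growth is halved. TGI: total growth inhibition.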

Columns and labels:
Assay in all cases: inhibition of tumour cell growth, NCI panel, 48 h
[1] = test system: 786-0 renal
[2] = test system: A549 NSCLC
[3] = test system: ACHN renal
[4] = test system: BT-549 breast
[5] = test system: CAKI-1 renal
[6] = test system: COLO 205 colon
[7] = test system: DU-145 prostate
[8] = test system: EKVX NSCLC
[9] = test system: HCT-116 colon
[10] = test system: HCT-15 colon
[11] = test system: HL-60(TB) leukemia
[12] = test system: HOP-62 NSCLC
[13] = test system: HS 578T breast
[14] = test system: HT29 colon
[15] = test system: IGROV1 ovarian
[16] = test system: K-562 leukemia
[17] = test system: KM12 colon
[18] = test system: LOX IMVI melanoma
[19] = test system: M14 melanoma
[20] = test system: MALME-3M melanoma
[21] = test system: MCF7 breast
[22] = test system: MDA-MB-231 breast
[23] = test system: MDA-MB-435
[24] = test system: MOLT-4 leukemia
[25] = test system: NCI-H226 lung
[26] = test system: NCI-H23 lung
[27] = test system: NCI-H460 lung
[28] = test system: NCI-H522 lung
[29] = test system: NCI/ADR-RES ovarian
[30] = test system: OVCAR-3 ovarian
[31] = test system: OVCAR-5 ovarian
[32] = test system: OVCAR-8 ovarian
[33] = test system: PC-3 prostate
[34] = test system: RXF 393 renal
[35] = test system: SF-268 CNS
[36] = test system: SF-295 CNS
[37] = test system: SF-539 CNS
[38] = test system: SK-MEL-28 melanoma
[39] = test system: SK-MEL-5 melanoma
[40] = test system: SK-OV-3 ovarian
[41] = test system: SN12C renal
[42] = test system: SNB-19 CNS
[43] = test system: SNB-75 CNS
[44] = test system: SR leukemia
[45] = test system: SW-620 colon
[46] = test system: T-47D breast
[47] = test system: TK-10 renal
[48] = test system: U251 CNS
[49] = test system: UACC-257 melanoma
[50] = test system: UACC-62 melanoma
[51] = test system: UO-31 renal
[52] = test system: A498 renal
[53] = test system: CCRF-CEM leukemia
[54] = test system: HCC-2998 colon
[55] = test system: HOP-92 NSCLC
[56] = test system: OVCAR-4 ovarian
[57] = test system: RPMI-8226 leukemia
[58] = test system: SK-MEL-2 melanoma

Compound: C/C(=C\CO)CC/C=C(\C)CNc1ccccc1
- TGI [1]: > 100 µM
- TGI [2]: > 100 µM
- TGI [3]: > 100 µM
- TGI [4]: 55.2 µM
- TGI [5]: > 100 µM
- TGI [6]: > 100 µM
- TGI [7]: > 100 µM
- TGI [8]: 93.7 µM
- TGI [9]: > 100 µM
- TGI [10]: > 100 µM
- TGI [11]: > 100 µM
- TGI [12]: > 100 µM
- TGI [13]: 97.8 µM
- TGI [14]: 47.9 µM
- TGI [15]: > 100 µM
- TGI [16]: > 100 µM
- TGI [17]: > 100 µM
- TGI [18]: > 100 µM
- TGI [19]: > 100 µM
- TGI [20]: 66.9 µM
- TGI [21]: > 100 µM
- TGI [22]: > 100 µM
- TGI [23]: > 100 µM
- TGI [24]: 25.7 µM
- TGI [25]: > 100 µM
- TGI [26]: 27.1 µM
- TGI [27]: > 100 µM
- TGI [28]: 98.5 µM
- TGI [29]: > 100 µM
- TGI [30]: > 100 µM
- TGI [31]: > 100 µM
- TGI [32]: > 100 µM
- TGI [33]: > 100 µM
- TGI [34]: > 100 µM
- TGI [35]: > 100 µM
- TGI [36]: > 100 µM
- TGI [37]: > 100 µM
- TGI [38]: > 100 µM
- TGI [39]: 34.1 µM
- TGI [40]: > 100 µM
- TGI [41]: > 100 µM
- TGI [42]: > 100 µM
- TGI [43]: 54.6 µM
- TGI [44]: 79.5 µM
- TGI [45]: > 100 µM
- TGI [46]: 81 µM
- TGI [47]: 65.4 µM
- TGI [48]: > 100 µM
- TGI [49]: 91.8 µM
- TGI [50]: > 100 µM
- TGI [51]: > 100 µM

Compound: CCN(CC)CCNc1ccc(C)c2sc3ccccc3c(=O)c12 (tested in a mixture with another compound)
- GI50 [1]: 1.79 µM
- TGI [1]: 4.83 µM and 11.4 µM
- GI50 [52]: 1.83 µM
- TGI [52]: 4.11 µM and 7.09 µM
- GI50 [2]: 1.63 µM
- TGI [2]: 3.24 µM and 8.53 µM
- GI50 [3]: 2.34 µM and 2.2 µM
- TGI [3]: 5.47 µM and 5.97 µM
- GI50 [4]: 6.4 µM
- TGI [4]: 16.3 µM and 21.4 µM
- GI50 [5]: 1.38 µM and 0.694 µM
- TGI [5]: 4.5 µM and 6.47 µM
- GI50 [53]: 2.84 µM and 3.05 µM
- TGI [53]: 8.82 µM and 10.6 µM
- TGI [6]: 3 µM and 3.1 µM
- GI50 [7]: 2.58 µM and 3.08 µM
- TGI [7]: 9.14 µM and 8.92 µM
- GI50 [8]: 5.1 µM and 4.96 µM
- TGI [8]: 19.7 µM and 19.5 µM
- GI50 [54]: 1.55 µM and 1.94 µM
- TGI [54]: 3.03 µM and 4.51 µM
- GI50 [9]: 1.5 µM
- TGI [9]: 2.9 µM and 3.62 µM
- TGI [10]: 11.1 µM and 9.1 µM
- GI50 [11]: 2.41 µM
- TGI [11]: 3.72 µM and 7.76 µM
- GI50 [12]: 1.54 µM and 2.07 µM
- TGI [12]: 3.12 µM and 5.88 µM
- GI50 [55]: 1.34 µM and 1.76 µM
- TGI [55]: 6.77 µM and 8.86 µM
- GI50 [13]: 1.91 µM and 1.78 µM
- TGI [13]: 4.75 µM and 5 µM
- TGI [14]: 3.79 µM
- GI50 [15]: 1.54 µM and 2.75 µM
- TGI [15]: 3.1 µM and 9.38 µM
- TGI [16]: 3.92 µM and 4.27 µM
- TGI [17]: 9.82 µM and 11.6 µM
- GI50 [18]: 1.86 µM and 1.7 µM
- TGI [18]: 3.88 µM and 3.81 µM
- TGI [19]: 3.05 µM and 3.14 µM
- GI50 [20]: 1.65 µM and 1.71 µM
- TGI [20]: 3.46 µM and 3.45 µM
- GI50 [21]: 1.81 µM and 1.75 µM
- TGI [21]: 3.85 µM and 3.73 µM
- GI50 [22]: 1.72 µM and 1.83 µM
- TGI [22]: 3.56 µM and 3.98 µM
- TGI [23]: 4.13 µM and 4.21 µM
- GI50 [24]: 2.55 µM and 2.57 µM
- TGI [24]: 6.33 µM and 6.48 µM
- GI50 [25]: 1.62 µM and 2.27 µM
- TGI [25]: 3.25 µM and 5.09 µM
- GI50 [26]: 2.32 µM
- TGI [26]: 6.01 µM and 11.4 µM
- TGI [27]: 3.81 µM and 3.58 µM
- GI50 [28]: 3.34 µM
- TGI [28]: 13.3 µM
- GI50 [29]: 3.21 µM and 3.19 µM
- TGI [29]: 12.2 µM and 13.5 µM
- GI50 [30]: 2.43 µM
- TGI [30]: 6.92 µM and 7.23 µM
- GI50 [56]: 3.91 µM
- TGI [56]: 13.6 µM and 17.3 µM
- GI50 [31]: 1.8 µM and 2.35 µM
- TGI [31]: 3.98 µM and 5.87 µM
- GI50 [32]: 6.63 µM
- TGI [32]: 76.9 µM
- GI50 [33]: 2.77 µM
- TGI [33]: 6.63 µM and 12.4 µM
- TGI [57]: 4.49 µM and 4.35 µM
- TGI [34]: 5.16 µM
- GI50 [35]: 3.91 µM and 3.3 µM
- TGI [35]: 14.8 µM and 12.5 µM
- TGI [36]: 5.3 µM and 5.37 µM
- GI50 [37]: 1.92 µM and 2.25 µM
- TGI [37]: 4.06 µM and 5.45 µM
- TGI [58]: 8.28 µM
- TGI [38]: 3.3 µM and 3.27 µM
- GI50 [39]: 1.54 µM and 1.69 µM
- TGI [39]: 2.98 µM and 3.09 µM
- GI50 [40]: 2.11 µM and 2.91 µM
- TGI [40]: 5.63 µM and 9.21 µM
- GI50 [41]: 4.38 µM
- TGI [41]: 12.7 µM and 18 µM
- GI50 [42]: 3.95 µM
- TGI [42]: 11.4 µM and 15.7 µM
- TGI [43]: 4.6 µM and 6.21 µM
- TGI [45]: 3.46 µM and 3.72 µM
- GI50 [46]: 1.75 µM and 2.29 µM
- TGI [46]: 4.64 µM and 7.22 µM
- GI50 [47]: 2.73 µM
- TGI [47]: 5.64 µM and 12.2 µM
- TGI [48]: 6.92 µM and 8.17 µM
- GI50 [49]: 2.31 µM
- TGI [49]: 4.8 µM
- GI50 [50]: 1.08 µM
- TGI [50]: 2.49 µM and 3.79 µM
- TGI [51]: 3.79 µM
